The record followed here is patent US6340676B2, “4-aryl-1-oxa-9-thia-cyclopenta (b) fluorenes” (American Home Products Corporation, priority 1998, dated 2002).

Data set [1] has as its system diabetic (ob/ob) mice. Description: Blood glucose lowering activity in diabetic (ob/ob) mice. It is filed as in vivo. As to conditions: for % Change Glucose from Vehicle: plasma glucose. The source says: The procedures used and results obtained are briefly described below.
The non-insulin dependent diabetic (NIDDM) syndrome can be typically characterizes by obesity, hyperglycemia, abnormal insulin secretion, hyperinsulinemia and insulin resistance.
In each test procedure, mice [Male or female ob/ob (C57 B1/6J) and their lean litermates (ob/+ or +/+, Jackson Laboratories) ages 2 to 5 months (10 to 65 g)] of a similar age were randomized according to body weight into 4 groups of 10 mice. The mice were housed 5 per cage and are maintained on normal rodent chow with water ad libitum. Mice received test compound daily by gavage (suspended in 0.5 ml of 0.5% methyl cellulose); dissolved in the drinking water; or admixed in the diet. The dose of compounds given ranges from 2.5 to 200 mg/kg body weight/day. The dose is calculated based on the fed weekly body weight and is expressed as active moiety. The positive control, ciglitazone ([…], see Chang, A., Wyse, B., Gilchrist, B., Peterson, T. and Diani, A. Diabetes 32: 830-838, 1983.) was given at a dose of 100 mg/kg/day, which produces a significant lowering in plasma glucose. Control mice received vehicle only.
On the morning of Day 4, 7 or 14 two drops of blood (approximately 50 ul) were collected into sodium fluoride containing tubes either from the tail vein or after decapitation. For those studies in which the compound was administered daily by gavage the blood samples were collected two hours after compound administration. The plasma was isolated by centrifugation and the concentration of glucose is measured enzymatically on an Abbott V. P. Analyzer.
For each mouse, the percentage change in plasma glucose on Day 4, 7 or 14 is calculated relative to the mean plasma glucose of the vehicle treated mice. Analysis of variance followed by Dunett's Comparison Test (one-tailed) are used to estimate the significant difference between the plasma glucose values from the control group and the individual compound treated groups (CMS SAS Release 5.18).

In data set [2] the target is T1, Human recombinant PTP1B (Homo sapiens, UniProt P18031).
T1 construct: made in house
T1 sequence (P18031 1-435): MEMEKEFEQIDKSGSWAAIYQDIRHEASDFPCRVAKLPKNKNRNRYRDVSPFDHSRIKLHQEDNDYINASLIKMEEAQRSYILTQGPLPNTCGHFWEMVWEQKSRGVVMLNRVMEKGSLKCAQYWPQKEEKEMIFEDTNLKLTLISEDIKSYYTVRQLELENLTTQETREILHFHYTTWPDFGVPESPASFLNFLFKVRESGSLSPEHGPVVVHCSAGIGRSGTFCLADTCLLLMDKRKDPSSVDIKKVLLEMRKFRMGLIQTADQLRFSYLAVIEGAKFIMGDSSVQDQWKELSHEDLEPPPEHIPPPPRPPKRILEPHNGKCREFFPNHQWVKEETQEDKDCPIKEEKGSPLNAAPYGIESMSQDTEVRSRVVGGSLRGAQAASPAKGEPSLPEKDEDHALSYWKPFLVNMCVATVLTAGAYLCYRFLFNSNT
The data set is classed as biochemical.

Data set [3] has as its system rat hepatic microsomal PTPases. The settings on record: PTPase activity; compounds at 50 μM.

For the molecule `CC1(COc2ccc(CC3SC(=O)NC3=O)cc2)CCCCC1` (stereo not shown) [Ciglitazone, 5-(4-(1-methylcyclohexylmethoxy)benzyl)-2,4-dione, reference compound], in data set [1] (dose 100 mg/Kg), the “% Change Insulin from Vehicle” value is on record as −39% and the “% Change Glucose from Vehicle” value is −43%.
The term melting point denotes the temperature of the solid-liquid transition. The molecule `Cc1oc2cc3sc4ccccc4c3c(-c3ccc(O)cc3)c2c1C` [Example 5, 4-(2,3-Dimethyl-1-oxa-9-thia-cyclopenta[b]fluoren-4-yl)-phenol] showed a melting point of 174 to 175 °C.
The IC50 is the point on the concentration scale where inhibition reaches its midpoint. With `Cc1oc2cc3sc4ccccc4c3c(-c3cc(I)c(O[C@H](C)C(=O)O)c(I)c3)c2c1C` [Example 8, (R)-2-[4-(2,3-Dimethyl-1-oxa-9-thia-cyclopenta[b]fluoren-4-yl)-2,6-diiodo-phenoxy]-propionic acid], the concentration for half-maximal inhibition (IC50) in data set [2] was 284 nM. Also, the “% Change from Control” value in data set [3] was −58.84%.
On to `Cc1oc2cc3sc4ccccc4c3c(-c3cc(I)c(O[C@H](Cc4ccccc4)C(=O)O)c(I)c3)c2c1C` [Example 9, (R)-2-[4-(2,3-Dimethyl-1-oxa-9-thia-cyclopenta[b]fluoren-4-yl)-2,6-diiodo-phenoxy]-3-phenyl-propionic acid], for which the 50% inhibitory concentration (IC50) in data set [2] came out at 74 nM. Further, the “% Change Insulin from Vehicle” value in data set [1] (dose 10 mg/Kg) is on record as −43.43%. In data set [1] (dose 10 mg/Kg, footnote (a): no significant activity (p < 0.05) at this dose), the “% Change Glucose from Vehicle” value is recorded as 8.13%. In addition, the “% Change from Control” value in data set [3] is on record as −72.70%.
As to “Ammonium molybdate tetrahydrate [reference compound]”, the IC50 in data set [2] is 8700 nM.
